Test results published in ChEMBL document CHEMBL5346964, “Discovery of LNP1892: A Precision Calcimimetic for the Treatment of Secondary Hyperparathyroidism” (J Med Chem, 2023).

What was measured:
CYP2D6 = CYP2D6 (Homo sapiens, UniProt P10635); assay: Inhibition of CYP2D6 in human liver microsomes at 1 uM preincubated for 5 mins followed by NADPH addition by LC-MS/MS analysis relative to control; type: ADME, Microsome
hERG [1] = target: T1, hERG (Homo sapiens, UniProt Q12809); assay: Inhibition of hERG at 1 uM relative to control; type: toxicity
hERG [2] = target: T1, hERG; assay: Inhibition of hERG at 10 uM relative to control; type: toxicity
[3] = Microsomal stability in rat liver microsomes assessed as parent compound remaining at 1 uM measured upto 30 mins in presence of NADPH by LC-MS/MS analysis; type: ADME, Microsome; conditions: read-out: Stability
[4] = Clearance in Sprague-Dawley rat at 1 mg/kg, iv measured upto 24 hrs by LC-MS/MS analysis; type: ADME, organism-based; conditions: in vivo
[5] = Volume of distribution at steady state in Sprague-Dawley rat at 1 mg/kg, iv measured upto 24 hrs by LC-MS/MS analysis; type: ADME, organism-based; conditions: in vivo, read-out: Vdss
[6] = AUClast in Sprague-Dawley rat at 10 mg/kg, po administered as suspension measured upto 24 hrs by LC-MS/MS analysis; type: ADME, organism-based; design: dose 10 mg/kg, time < 24 hrs, route po; conditions: in vivo
[7] = AUClast in Sprague-Dawley rat at 10 mg/kg, po administered as solution measured upto 24 hrs by LC-MS/MS analysis; type: ADME, organism-based; design: dose 10 mg/kg, time < 24 hrs, route po; conditions: in vivo
[8] = Effect on parathyroid hormone in overnight fasted Sprague-Dawley rat assessed as reduction in plasma PTH level at 3 mg/kg, po measured after 6 hrs of post treatment by sandwich ELISA analysis; type: functional; design: scale not given: the % may be the effect or the level left
Rattus norvegicus [9] = assay: Acute effect on parathyroid hormone in overnight fasted adenine diet-induced chronic kidney disease Wistar rat model assessed as reduction in plasma PTH level at 10 mg/kg, po measured after 1 hrs of post treatment by sandwich ELISA analysis; type: functional; design: scale not given: the % may be the effect or the level left
Rattus norvegicus [10] = assay: Acute effect on parathyroid hormone in overnight fasted adenine diet-induced chronic kidney disease Wistar rat model assessed as reduction in plasma PTH level at 1 mg/kg, po measured after 2 hrs of post treatment by sandwich ELISA analysis; type: functional; design: scale not given: the % may be the effect or the level left
Rattus norvegicus [11] = assay: Chronic effect on parathyroid hormone in overnight fasted adenine diet-induced chronic kidney disease Wistar rat model plasma assessed as reduction in plasma PTH level at 3 mg/kg, po qd measured after 27 days of post treatment by sandwich ELISA analysis; type: functional; design: scale not given: the % may be the effect or the level left; conditions: time 27 day
[12] = Cmax in Sprague-Dawley rat at 10 mg/kg; type: ADME, organism-based; design: dose 10 mg/kg; conditions: in vivo
[13] = AUC(0 to 24 hrs) in Sprague-Dawley rat at 30 mg/kg; type: ADME, organism-based; design: dose 30 mg/kg; conditions: in vivo
[14] = Cmax in Sprague-Dawley rat at 100 mg/kg; type: ADME, organism-based; design: dose 100 mg/kg; conditions: in vivo
[15] = Cmax in Sprague-Dawley rat at 300 mg/kg; type: ADME, organism-based; design: dose 300 mg/kg; conditions: in vivo
[16] = Metabolic stability in mouse liver S9 fraction measured upto 60 mins by LC-MS/MS method; type: ADME, subcellular; conditions: read-out: Stability
[17] = Metabolic stability in human liver S9 fraction measured upto 60 mins by LC-MS/MS method; type: ADME, subcellular; conditions: read-out: Stability
[18] = Stability in dog plasma measured up to 4 hrs by LC-MS/MS method; type: ADME, cell-free, Canis lupus familiaris; conditions: read-out: Stability
[19] = Stability in human plasma measured up to 4 hrs by LC-MS/MS method; type: ADME, cell-free; conditions: read-out: Stability
[20] = Protein binding in rat plasma incubated for 16 hrs under shaking condition by rapid equilibrium dialysis based LC-MS/MS method; type: ADME, cell-free; conditions: read-out: PPB
[21] = Protein binding in dog plasma incubated for 16 hrs under shaking condition by rapid equilibrium dialysis based LC-MS/MS method; type: ADME, cell-free, Canis lupus familiaris; conditions: read-out: PPB
CYP3A4 = CYP3A4 (Homo sapiens, UniProt P08684); assay: Inhibition of CYP3A4 in human liver microsomes at 10 uM preincubated for 5 mins followed by NADPH addition by LC-MS/MS analysis relative to control; type: ADME, Microsome
CYP2C19 = CYP2C19 (Homo sapiens, UniProt P33261); assay: Inhibition of CYP2C19 in human liver microsomes at 10 uM preincubated for 5 mins followed by NADPH addition by LC-MS/MS analysis relative to control; type: ADME, Microsome
[22] = Apparent permeability across apical to basolateral side in human Caco-2 cells at 5 uM measured after 30 to 120 mins by LC-MS/MS analysis; type: ADME, cell-based; conditions: time 30-120 min
[23] = Apparent permeability across basolateral to apical side in human Caco-2 cells at 5 uM measured after 30 to 120 mins by LC-MS/MS analysis; type: ADME, cell-based; conditions: time 30-120 min
[24] = Kinetic solubility of compound upto 500 uM in 0.1N NaOH measured after 16 hrs under shaking condition by UV-visible method; type: physicochemical; conditions: read-out: Kinetic_solubility
[25] = Kinetic solubility of compound upto 500 uM at pH 2 measured after 16 hrs under shaking condition by UV-visible method; type: physicochemical; conditions: buffer, read-out: Kinetic_solubility
[26] = Kinetic solubility of compound upto 500 uM at pH 4 measured after 16 hrs under shaking condition by UV-visible method; type: physicochemical; conditions: buffer, read-out: Kinetic_solubility
[27] = Kinetic solubility of compound in FaSSIF upto 500 uM measured after 16 hrs under shaking condition by UV-visible method; type: physicochemical; conditions: read-out: Kinetic_solubility
[28] = Kinetic solubility of compound in 20% HP-beta-CD upto 500 uM measured after 16 hrs under shaking condition by UV-visible method; type: physicochemical; conditions: read-out: Kinetic_solubility
[29] = Kinetic solubility of compound upto 500 uM at pH 7.4 measured after 16 hrs under shaking condition by UV-visible method; type: physicochemical; conditions: buffer, read-out: Kinetic_solubility
[30] = Chemical stability of the compound at pH 7.4 measured after 0.5 to 4 hrs; type: physicochemical; conditions: buffer, time 0.5-4 hrs
[31] = Chemical stability of the compound in 0.1N NaOH measured after 0.5 to 4 hrs; type: physicochemical; conditions: time 0.5-4 hrs
[32] = Chemical stability of the compound in FaSSIF measured after 0.5 to 4 hrs; type: physicochemical; conditions: simulated gi fluid; time 0.5-4 hrs
[33] = Chemical stability of the compound in SIF measured after 0.5 to 4 hrs; type: physicochemical; conditions: simulated gi fluid; time 0.5-4 hrs
[34] = Plasma clearance in BALB/c mouse at 1 mg/kg, iv measured upto 24 hrs by LC/MS-MS analysis; type: ADME, organism-based
[35] = Half life in BALB/c mouse at 1 mg/kg, iv measured upto 24 hrs by LC/MS-MS analysis; type: ADME, organism-based; conditions: in vivo
[36] = Half life in cynomolgus monkey at 1 mg/kg, iv measured upto 24 hrs by LC/MS-MS analysis; type: ADME, organism-based, Macaca fascicularis; conditions: in vivo
[37] = Tmax in Sprague-Dawley rat at 10 mg/kg, po measured upto 24 hrs by LC/MS-MS analysis; type: ADME, organism-based; conditions: in vivo
[38] = Cmax in Sprague-Dawley rat at 10 mg/kg, po measured upto 24 hrs by LC/MS-MS analysis; type: ADME, organism-based; design: dose 10 mg/kg, time < 24 hrs, route po; conditions: in vivo
[39] = Cmax in Beagle dog at 5 mg/kg, po measured upto 24 hrs by LC/MS-MS analysis; type: ADME, organism-based, Canis lupus familiaris; design: dose 5 mg/kg, time < 24 hrs, route po; conditions: in vivo
[40] = Drug excretion in BALB/c mouse assessed as drug recovery in urine at 10 mg/kg, po; type: ADME, organism-based; conditions: read-out: Drug recovery
[41] = Drug excretion in BALB/c mouse assessed as drug recovery in feces at 1 mg/kg, iv; type: ADME, organism-based; conditions: faeces, read-out: Drug recovery
[42] = Cmax in rat at 25 mg/kg per day, po via gavage administered for 13 weeks; type: ADME, organism-based; design: time 13 weeks, dose 25 mg/kg, route po; conditions: in vivo
[43] = Toxicity in rat assessed as NOAEL; conditions: in vivo

T1 sequence (Q12809 whole entry): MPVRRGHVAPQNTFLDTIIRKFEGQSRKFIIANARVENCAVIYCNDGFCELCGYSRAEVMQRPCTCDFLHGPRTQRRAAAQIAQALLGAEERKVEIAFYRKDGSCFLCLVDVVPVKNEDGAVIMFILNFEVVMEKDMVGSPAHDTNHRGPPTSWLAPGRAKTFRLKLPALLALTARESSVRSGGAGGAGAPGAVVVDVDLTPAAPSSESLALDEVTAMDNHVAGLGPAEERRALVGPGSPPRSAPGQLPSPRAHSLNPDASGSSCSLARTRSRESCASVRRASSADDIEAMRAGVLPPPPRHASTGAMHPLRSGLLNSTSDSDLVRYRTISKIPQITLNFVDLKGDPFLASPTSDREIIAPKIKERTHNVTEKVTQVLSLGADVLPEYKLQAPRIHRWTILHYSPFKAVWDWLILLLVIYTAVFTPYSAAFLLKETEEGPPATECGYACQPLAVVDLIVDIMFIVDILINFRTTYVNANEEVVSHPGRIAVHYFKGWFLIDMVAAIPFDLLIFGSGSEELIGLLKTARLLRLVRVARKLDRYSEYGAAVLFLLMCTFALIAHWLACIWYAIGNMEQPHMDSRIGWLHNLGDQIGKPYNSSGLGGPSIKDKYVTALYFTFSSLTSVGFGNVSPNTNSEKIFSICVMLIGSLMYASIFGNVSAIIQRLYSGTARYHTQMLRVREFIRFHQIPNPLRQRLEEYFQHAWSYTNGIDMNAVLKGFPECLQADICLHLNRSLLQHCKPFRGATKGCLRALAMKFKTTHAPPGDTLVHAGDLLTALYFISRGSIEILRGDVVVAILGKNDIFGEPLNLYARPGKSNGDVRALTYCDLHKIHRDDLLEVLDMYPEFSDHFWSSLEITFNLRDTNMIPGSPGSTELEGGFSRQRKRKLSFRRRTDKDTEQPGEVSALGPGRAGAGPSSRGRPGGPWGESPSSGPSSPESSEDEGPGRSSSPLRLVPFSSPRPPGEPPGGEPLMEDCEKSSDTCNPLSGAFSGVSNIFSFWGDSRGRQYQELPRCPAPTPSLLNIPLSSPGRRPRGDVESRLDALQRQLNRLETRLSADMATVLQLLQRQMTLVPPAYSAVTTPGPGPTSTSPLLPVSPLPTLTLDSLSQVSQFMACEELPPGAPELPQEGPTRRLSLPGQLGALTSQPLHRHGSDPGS
Chain of CYP2C19 (P33261 whole entry): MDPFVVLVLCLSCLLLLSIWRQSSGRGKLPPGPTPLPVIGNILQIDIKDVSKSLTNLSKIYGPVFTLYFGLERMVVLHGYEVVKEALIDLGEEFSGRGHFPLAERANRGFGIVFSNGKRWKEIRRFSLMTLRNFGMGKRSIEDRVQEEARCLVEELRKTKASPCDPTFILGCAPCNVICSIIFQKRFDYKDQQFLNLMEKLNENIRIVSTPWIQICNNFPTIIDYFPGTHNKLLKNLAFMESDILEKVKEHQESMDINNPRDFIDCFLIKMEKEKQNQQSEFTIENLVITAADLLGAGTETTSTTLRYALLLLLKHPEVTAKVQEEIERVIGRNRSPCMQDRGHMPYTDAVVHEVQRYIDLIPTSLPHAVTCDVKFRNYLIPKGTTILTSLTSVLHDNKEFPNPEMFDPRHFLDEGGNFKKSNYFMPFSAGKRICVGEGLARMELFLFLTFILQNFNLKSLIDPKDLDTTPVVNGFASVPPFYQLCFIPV
Chain of CYP2D6 (P10635 whole entry): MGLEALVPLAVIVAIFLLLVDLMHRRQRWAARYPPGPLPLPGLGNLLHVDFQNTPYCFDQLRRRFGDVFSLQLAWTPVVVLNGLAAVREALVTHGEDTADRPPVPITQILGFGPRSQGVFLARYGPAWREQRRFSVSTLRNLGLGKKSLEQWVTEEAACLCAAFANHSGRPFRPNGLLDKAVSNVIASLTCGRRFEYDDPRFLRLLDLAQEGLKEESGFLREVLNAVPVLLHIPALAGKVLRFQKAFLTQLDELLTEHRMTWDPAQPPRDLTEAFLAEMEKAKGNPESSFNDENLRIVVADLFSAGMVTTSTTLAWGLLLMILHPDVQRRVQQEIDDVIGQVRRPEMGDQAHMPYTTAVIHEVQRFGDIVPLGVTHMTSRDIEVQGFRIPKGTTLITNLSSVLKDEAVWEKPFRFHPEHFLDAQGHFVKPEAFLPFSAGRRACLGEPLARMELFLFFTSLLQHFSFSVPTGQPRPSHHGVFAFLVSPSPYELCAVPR
Chain of CYP3A4 (P08684 whole entry): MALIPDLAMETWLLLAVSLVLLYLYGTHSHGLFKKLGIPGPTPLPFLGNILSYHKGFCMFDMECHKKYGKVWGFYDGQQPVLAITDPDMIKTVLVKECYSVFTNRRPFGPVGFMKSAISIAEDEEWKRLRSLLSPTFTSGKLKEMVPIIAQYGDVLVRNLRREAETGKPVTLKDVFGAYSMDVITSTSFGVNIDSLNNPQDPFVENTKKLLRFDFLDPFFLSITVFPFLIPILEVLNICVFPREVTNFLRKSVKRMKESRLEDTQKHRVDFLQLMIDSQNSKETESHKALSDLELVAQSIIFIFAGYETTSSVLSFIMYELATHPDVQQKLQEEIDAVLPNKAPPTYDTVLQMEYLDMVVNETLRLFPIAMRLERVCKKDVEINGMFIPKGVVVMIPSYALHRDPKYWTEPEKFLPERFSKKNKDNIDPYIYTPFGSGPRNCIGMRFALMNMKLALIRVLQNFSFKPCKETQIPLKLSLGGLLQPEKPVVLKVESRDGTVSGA

Cc1ccc([C@@H]2C[C@H](CN[C@H](C)c3cccc4ccccc34)Oc3ccccc32)cc1C(=O)O.Cl
inhibition at 1 µM (CYP2D6): 4% | inhibition at 1 µM (hERG [1]): 1% | inhibition at 10 µM (hERG [2]): 4% | remaining at 0.5 h, 1 µM [3]: 77% | clearance [4]: 4 mL/min/kg | Vd [5]: 1 L/kg | AUC(0-t) at 24 h [6]: 23 µM·h | AUC(0-t) at 24 h [7]: 71 µM·h | Activity [8]: 18% | Activity (Rattus norvegicus [9]): 96% | Activity (Rattus norvegicus [10]): 95% | Activity (Rattus norvegicus [11]): 83% | Cmax [12]: 4 µM | AUC(0-t) [13]: 116 µM·h | Cmax [14]: 53 µM | Cmax [15]: 72 µM | remaining at 1 h [16]: > 80% | remaining at 1 h [17]: > 80% | remaining at 4 h [18]: > 80% | remaining at 4 h [19]: > 80% | fraction unbound at 16 h [20]: < 0.01 | fraction unbound at 16 h [21]: < 0.01 | inhibition at 10 µM (CYP3A4): 0% | inhibition at 10 µM (CYP2C19): 7% | Papp A→B at 5 µM [22]: 20 ×10⁻⁶ cm/s | Papp B→A at 5 µM [23]: 6.3 ×10⁻⁶ cm/s | solubility kinetic at 16 h, 500 µM [24]: > 300 µM | solubility kinetic at 16 h, 500 µM [25]: > 300 µM | solubility kinetic at 16 h, 500 µM [26]: > 300 µM | solubility kinetic at 16 h, 500 µM [27]: > 300 µM | solubility kinetic at 16 h, 500 µM [28]: > 200 µM | solubility kinetic at 16 h, 500 µM [29]: > 200 µM | Stability [30]: Stable | Stability [31]: Stable | Stability [32]: Stable | Stability [33]: Stable | clearance [34]: 2.6 mL/min/kg | half-life [35]: 3 h | half-life [36]: 5 h | Tmax [37]: 0.6 h | Cmax [38]: 14 µM | Cmax [39]: 11 µM | dose excreted [40]: < 1% | dose excreted [41]: 27% | Cmax [42]: 9660 ng/mL | NOAEL [43]: 25 mg/kg/day
